Source: patent US11420967B2 (priority 2018, dated 2022)
Read-outs that look alike come from different tables or passages of the source.

Legend:
tubulin = target: T1, tubulin (Sus scrofa, UniProt P02550+P02554); assay: Tubulin polymerization with fluorescent tubulin (Cytoskeleton Inc.); format: biochemical; settings: fluorescent tubulin, 100 μl
T1 construct: purchased Cytoskeleton Inc
Method: Real-time tubulin polymerization was measured by quantifying increase in fluorescent tubulin assembly in microtubule (RFU) as a function of time (minutes).
Dose-response curves that generated results in Table 5. Tubulin assembly was measured using fluoresent-rescent tubulin in 100 μl according to manufacturer's protocol (Cytoskeleton Inc.).

T98G cells = assay: Antitumor activity in T98G cells in culture (WST-1 cell viability); format: cell-based, human; settings: for EC50: WST-1, 72 hours after treatment, read-out: EC50; for Emax: read-out: maximal efficacy at killing T98G cells; for increase in EC50 value relative to compound 8: compared with 8 (87 nM)
Method: Unless otherwise noted, maximal efficacies were measured at 10 μM. Data are the mean of at least three independent experiments performed in triplicate.
Cell culture. Cells were cultured in DMEM supplemented with 10% FBS, 100 U/mL penicillin, and 100 μg/mL streptomycin at 37° C. in a 5% CO2 humidified atmosphere. T98G and HepG2 cells (ATCC, Manassas, Va.) were authenticated by ATCC when purchased using human short tandem repeat analysis and maintained in culture for less than 6 months. Tumors were obtained from surgeries performed at the Swedish Medical Center (Seattle, Wash.) according to Institutional Review Board guidelines. Patient samples used in this study were diagnosed as WHO grade IV glioblastoma multiforme. Patient-derived GBM cells were established from the freshly resected tumor tissues and maintained in NeuroCult® NSA medium (Stem Cell Technologies) with B-27 serum-free supplement, 20 ng/mL epidermal growth factor and 20 ng/mL fibroblast growth factor 2 as previously described.
Cell viability. […] Maximal % killing was calculated as the % reduction in cell viability measured at all drug concentration. EC50 values were calculated and reported only when a curve was reliably extrapolated by Prism software. The solvent for all modified carbazoles was DMSO (0.1% final).

[1] = target: T2, cannabinoid CB2 receptor (hCB2) (Homo sapiens, UniProt P34972); assay: β-arrestin recruitment in hCB2-transfected HEK293 cells; format: cell-based
T2 construct: expressed in transfected cells; host or cells: HEK293
T2 sequence (P34972 whole entry): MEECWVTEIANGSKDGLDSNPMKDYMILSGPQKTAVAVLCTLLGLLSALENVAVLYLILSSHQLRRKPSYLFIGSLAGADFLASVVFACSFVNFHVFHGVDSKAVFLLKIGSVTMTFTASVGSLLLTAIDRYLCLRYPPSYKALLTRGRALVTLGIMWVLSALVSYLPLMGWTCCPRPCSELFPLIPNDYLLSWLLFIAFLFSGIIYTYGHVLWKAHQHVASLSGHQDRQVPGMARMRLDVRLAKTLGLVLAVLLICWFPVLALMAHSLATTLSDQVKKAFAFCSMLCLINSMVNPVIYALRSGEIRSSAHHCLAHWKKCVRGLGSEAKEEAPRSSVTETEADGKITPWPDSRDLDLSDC

[2] = target: T3, cannabinoid CB1 receptor (hCB1) (Homo sapiens, UniProt P21554); assay: β-arrestin recruitment in hCB1-transfected HEK293 cells; format: cell-based; settings: β-arrestin recruitment
T3 construct: expressed in transfected cells; host or cells: HEK293
T3 sequence (P21554 whole entry): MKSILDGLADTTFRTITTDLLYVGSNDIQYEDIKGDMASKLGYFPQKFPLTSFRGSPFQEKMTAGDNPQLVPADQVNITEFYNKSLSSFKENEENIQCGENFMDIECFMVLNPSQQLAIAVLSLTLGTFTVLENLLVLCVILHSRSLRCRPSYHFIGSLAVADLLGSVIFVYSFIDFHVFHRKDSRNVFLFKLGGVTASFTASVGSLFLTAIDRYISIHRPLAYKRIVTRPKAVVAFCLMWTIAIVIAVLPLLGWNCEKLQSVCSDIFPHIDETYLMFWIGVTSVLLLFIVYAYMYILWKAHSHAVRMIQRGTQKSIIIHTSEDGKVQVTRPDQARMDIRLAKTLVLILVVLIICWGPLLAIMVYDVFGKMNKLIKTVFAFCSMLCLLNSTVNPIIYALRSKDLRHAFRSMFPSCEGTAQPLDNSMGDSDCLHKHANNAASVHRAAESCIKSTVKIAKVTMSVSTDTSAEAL

[3] = target: T4, sheared MTs / bovine brain tubulin (Bos taurus, UniProt P81947+Q6B856); assay: MT-tubulin partitioning (free tubulin pelleting assay, gel quantification); format: biochemical
T4 construct: Bovine brain tubulin was purified, polymerized into MTs and sheared; from tissue; host or cells: bovine brain
T4 sequence (Q6B856 whole entry): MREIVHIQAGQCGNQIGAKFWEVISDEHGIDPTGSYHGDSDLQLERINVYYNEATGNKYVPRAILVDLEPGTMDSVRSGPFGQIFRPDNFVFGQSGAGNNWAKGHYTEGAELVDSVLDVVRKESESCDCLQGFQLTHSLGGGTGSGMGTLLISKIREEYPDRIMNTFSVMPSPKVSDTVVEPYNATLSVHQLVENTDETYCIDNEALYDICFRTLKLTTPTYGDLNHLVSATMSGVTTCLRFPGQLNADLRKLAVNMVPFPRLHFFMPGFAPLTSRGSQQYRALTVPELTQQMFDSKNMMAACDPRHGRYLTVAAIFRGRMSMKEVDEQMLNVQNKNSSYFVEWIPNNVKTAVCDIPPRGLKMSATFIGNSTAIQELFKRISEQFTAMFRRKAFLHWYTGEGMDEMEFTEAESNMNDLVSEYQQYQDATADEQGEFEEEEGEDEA
T4 sequence (P81947 whole entry): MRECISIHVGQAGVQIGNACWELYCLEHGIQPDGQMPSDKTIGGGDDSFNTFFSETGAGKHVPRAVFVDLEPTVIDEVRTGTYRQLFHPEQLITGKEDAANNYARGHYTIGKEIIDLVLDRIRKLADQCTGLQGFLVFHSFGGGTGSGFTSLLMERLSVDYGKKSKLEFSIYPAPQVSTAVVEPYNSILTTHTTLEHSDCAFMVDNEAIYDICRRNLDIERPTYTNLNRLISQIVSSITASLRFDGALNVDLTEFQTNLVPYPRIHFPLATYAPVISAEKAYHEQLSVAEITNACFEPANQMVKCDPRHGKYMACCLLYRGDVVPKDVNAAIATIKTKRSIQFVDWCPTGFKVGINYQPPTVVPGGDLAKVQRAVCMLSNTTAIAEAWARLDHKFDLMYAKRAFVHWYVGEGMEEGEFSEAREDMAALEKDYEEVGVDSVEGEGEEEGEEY
Method: (§1) Results are mean±SEM from n=4-5 independent experiments performed in triplicates. […] Results are from 3 independent experiments performed in duplicate.
Next tested was their ability to inhibit the assembly of purified tubulin using an in vitro turbidity assay as previously described. […] In this assay, compounds are incubated with sheared MTs at 37° C. and the resulting amounts of tubulin dimers (free tubulin) and polymer (MT) after 15 min is measured on polyacrylamide gels.
MT-tubulin partitioning. Bovine brain tubulin was purified, polymerized into MTs and sheared as previously described. Sheared MTs and drugs were incubated at 37° C. for 15 min and centrifuged for 10 min at 42,000 rpm at 37° C. prior to separation into supernatants containing free tubulin and pellets containing polymerized MTs as previously described. […] Peak intensities were quantified using ImageJ.

[4] = target: T5, colchicine site of tubulin (purified tubulin) (Bos taurus, UniProt P81947+Q6B856); assay: [3H]colchicine binding to purified tubulin; design: species or system bovine; settings: read-out: Colchicine Binding % inhibition (mean ± SD) at 5 μM
T5 construct: from tissue; host or cells: native tubulin
T5 sequence (Q6B856 whole entry): as the sequence (Q6B856 whole entry) above
T5 sequence (P81947 whole entry): as the sequence (P81947 whole entry) above
Method: as §1
First, it was determined whether compounds of the disclosure compete for [^3H]colchicine binding to native purified tubulin as previously described.
[^3H]Colchicine binding to purified tubulin and tubulin assembly. [^3H]Colchicine binding to purified tubulin and tubulin assembly (as assessed by turbidity development in purified bovine tubulin solutions) were both measured as previously described.

[5] = system: NCI-60 cancer cell line panel; assay: NCI-60 cancer cell line panel screen (percent growth inhibition); format: cell-based, human
Excerpt: FIG. 4 illustrates analysis of cell-killing activity of select compounds of the disclosure in NCI-60 cancer cell line panel. 8, 20, 27 and 23 (left panel) and taxol, thalipcarpine, and maytansine activity (right panel) in the NCI-60 cell lines.
This screening platform measures the antitumor activities of compounds expressed as percent growth inhibition, which differentiates the compound's activity at inhibiting cell proliferation and reducing cell number (i.e. killing cells). […] Two GBM cells lines included in the NCI-60 panel, SF-295 and SF-539, were among the top ten cell lines that were the most sensitive to 8, 20 and 27 treatments (FIG. 6). Their respective EC50 values of the compounds measured in these cells mirrored their EC50 values measured in T98G cells. Additional cell lines among the top ten cell lines that were sensitive to these three compounds were three cell lines of colon cancer origin: Colo205, HT-29 and HCC-2998 (FIG. 5).

[6] = Homo sapiens, T98G cells, rounded values of the discussion
[7] = Homo sapiens, T98G, T98G cells, rounded values of the discussion

T1 sequence (P02554 whole entry): as the sequence (Q6B856 whole entry) above, with T55A, M170V, S296A, I316V, E440G, G441E counted along it
T1 sequence (P02550 whole entry): as the sequence (P81947 whole entry) above, with L136S, S232G, I265A, S340T, Q358E counted along it

Row | SMILES | EC50 (T98G cells; Homo sapiens, T98G cells) | antitumor activity in T98G cells (in words) (T98G cells; T98G cells) | effect on T98G cell viability (in words) (T98G cells; T98G cells) | maximal killing (% ± SEM) (T98G cells; T98G cells, at 10 μM, 72 hours) | Emax (T98G cells; [6]) | increase in EC50 value relative to compound 8 (T98G cells; T98G cells) | also measured
1 | CCn1c2ccccc2c2cc(C(O)c3cccc4ncccc34)ccc21 (single isomer, unassigned; (+)) [(+)-19, (+)-(9-ethyl-9H-carbazol-3-yl)(quinolin-5-yl)methanol] |  |  |  |  |  |  | IC50 (tubulin): 0.64 µM
2 | CCn1c2ccccc2c2cc(C(=O)N3CCN(C)CC3)ccc21 [Compound 9, 9-ethyl-3-(4-methylpiperazine-1-carbonyl)-9H-carbazole] | > 10 µM | only active at concentrations above five micromolar | did not affect T98G cell viability significantly | 13.2% |  |  | 
3 | CCn1c2ccccc2c2cc(C(=O)c3ccc(Cl)cc3)ccc21 [Compound 10, 3-(4-chlorobenzoyl)-9-ethyl-9H-carbazole] | 1.5 µM |  |  | 71.1% | 61% |  | 
4 | CCn1c2ccccc2c2cc(C(=O)c3ccc(F)cc3)ccc21 [Compound 11, 9-ethyl-3-(4-fluorobenzoyl)-9H-carbazole] | 8 µM |  |  | 54.8% | 55% |  | 
5 | CCn1c2ccccc2c2cc(C(=O)c3ccc(C)cc3)ccc21 [Compound 12, 9-ethyl-3-(4-methylbenzoyl)-9H-carbazole] | 0.993 µM |  |  |  | 84% | 11 fold | maximal killing (% ± SEM) (T98G cells; T98G cells, at 3 μM, 72 hours): 83.6%
6 | CCn1c2ccccc2c2cc(C(=O)Cc3ccccc3)ccc21 [Compound 13, 1-(9-ethyl-9H-carbazol-3-yl)-2-phenylethan-1-one] | > 10 µM | only active at concentrations above five micromolar | did not affect T98G cell viability significantly |  |  | more than 115 fold | maximal killing (% ± SEM) (T98G cells; T98G cells, at 3 μM, 72 hours): 14.0%
7 | CCn1c2ccccc2c2cc(C(=O)c3cccc4ccccc34)ccc21 [Compound 14, 9-ethyl-3-(naphthalene-1-carbonyl)-9H-carbazole] | 1.7 µM |  |  | 72.0% |  | 20 fold | Emax (T98G cells; [7]): 72%
8 | CCCn1c2ccccc2c2cc(C(=O)c3ccc(C)c4ccccc34)ccc21 [Compound 16, 9-propyl-3-[(4-methylnaphthalen-1-yl)carbonyl]-9H-carbazole] | > 10 µM | only active at concentrations above five micromolar | did not affect T98G cell viability significantly | 16.3% |  | 115 fold | 
9 | Cc1ccc(C(=O)c2ccc3c(c2)c2ccccc2n3CC(F)(F)F)c2ccccc12 [Compound 18, 3-(4-methylnaphthalene-1-carbonyl)-9-(2,2,2-trifluoroethyl)-9H-carbazole] | 5.6 µM | only active at concentrations above five micromolar |  | 35.6% |  | 64 fold | Emax (T98G cells; [7]): 35 to 45%; maximal efficacy at killing T98G cells (T98G cells; T98G cells, rounded values of the discussion): 35%
10 | CCn1c2ccccc2c2cc(C(=O)c3cccc4cccnc34)ccc21 [Compound 22, 9-ethyl-3-(quinoline-8-carbonyl)-9H-carbazole] | 8.8 µM |  |  | 60.0% | 60% |  | reduction of maximal antitumor efficacy relative to compound 25 (T98G cells): 96%
11 | CCn1c2ccccc2c2cc(C(=O)c3cccc4c3CCCN4)ccc21 [Compound 23, (9-ethyl-9H-carbazol-3-yl)(1,2,3,4-tetrahydroquinolin-5-yl)methanone] | > 10 µM | only active at concentrations above five micromolar | did not affect T98G cell viability significantly |  |  |  | EC50 [1]: 0.067 µM; Agonist efficacy (% activation) CB2 ([1]; β-arrestin recruitment): 2 % activation; Antagonist efficacy (% activation) CB2 ([1]; β-arrestin recruitment): 20 % activation; Agonist efficacy (% activation) CB1 [2]: −2 % activation; Antagonist efficacy (% activation) CB1 [2]: 16 % activation; EC50 ([2]; antagonist mode, read-out: Antagonist CB1, value in parentheses (EC50)): 0.183 µM; IC50 ([3]; MT-Tubulin Partitioning IC50 (μM) (mean), sheared MTs at 37° C., 15 min): > 20 µM; effect on MT assembly/disassembly, MT-free tubulin partitioning (in words) ([3]; free tubulin pelleting assay): does not affect MT assembly; maximal killing (% ± SEM) (T98G cells; T98G cells, at 3 μM, 72 hours): −17.0%; inhibition at 5 µM [4]: 4 ± 1%; viability at 10 µM ([5]; Homo sapiens, 48 h, read-out: growth inhibition: mean): 102%; effect on proliferation and viability of NCI-60 cell lines (in words) ([5]; NCI-60, 10 μM, 48 hours): did not significantly affect the proliferation and viability of any of the cell lines
12 | CCn1c2ccccc2c2cc(C(=O)c3cccc4c3NCCC4)ccc21 [Compound 24, 9-ethyl-3-(1,2,3,4-tetrahydroquinoline-8-carbonyl)-9H-carbazole] | > 10 µM | only active at concentrations above five micromolar | did not affect T98G cell viability significantly |  |  |  | maximal killing (% ± SEM) (T98G cells; T98G cells, at 100 nM, 72 hours): −18.0%
13 | Cc1ccc(C(=O)n2c3ccccc3c3ccccc32)c2ccccc12 [Compound 28, 9-(4-methylnaphthalene-1-carbonyl)-9H-carbazole] | 0.957 µM |  |  | 89.1% | 89% |  | 
14 | COc1ccc(/C=C\c2cc(OC)c(OC)c(OC)c2)cc1O [combretastatin A-4, reference compound] |  |  |  |  |  |  | EC50 (T98G cells; T98G cells): 0.0006 µM; maximal killing (T98G cells; T98G cells, at 10 nM, 72 hours): 30.4%±2.1
15 | CCCCCCC(C)(C)c1ccc([C@@H]2C[C@H](O)CC[C@H]2CCCO)c(O)c1 [positive control, CP55940, reference compound] |  |  |  |  |  |  | Antagonist efficacy (% activation) CB2 ([1]; β-arrestin recruitment): 92 % activation; Agonist efficacy (% activation) CB1 [2]: 1940 % activation; Antagonist efficacy (% activation) CB1 [2]: 97 % activation
